Data set [1] relates to HeLa cervix carcinoma cells. Set-up: method as in Bär et al. [33]. To be noted: MTT, value marked * ref Bär et al. [33]; cited from earlier work.
The subject of data set [2] is HCT-116^wt colon carcinoma cells. On the set-up: method as in Bär et al. [33]. The following applies: MTT, value marked * ref Bär et al. [33]; cited from earlier work.
The test system of data set [3] is 518A2 melanoma cells. Set-up: method as in Bär et al. [33]. The following applies: MTT, value marked * ref Bär et al. [33]; cited from earlier work.
For data set [4], the system named is HCT-116^p53−/− (p53 knockout mutant) colon carcinoma cells. Set-up: method as in Bär et al. [33]. To be noted: MTT, value marked * ref Bär et al. [33]; cited from earlier work.
In data set [5] the test system is human adult dermal fibroblasts HDFa. On the set-up: method as in Bär et al. [33]. The following applies: MTT, value marked * ref Bär et al. [33]; cited from earlier work.
Data set [6] has as its system 518A2 melanoma cells. The data set is described as follows: ROS assay (NBT). The following applies: 518A2 cells, 1 µM and 5 µM, 24 h. Format: cell-based, human. The procedure: To determine cellular ROS levels, 2,2′-bis(4-nitrophenyl)-5,5′-diphenyl-3,3′-(3,3′-dimethoxy-4,4′-diphenylene) di-tetrazolium chloride (NBT) was used. The assay is based on the reduction of a yellow NBT tetrazolium salt to a blue formazan dye. 518A2 melanoma cells were seeded in 96-well flat bottom microtiter plates (Sarstedt) with 100 µL per well and a cell density of 0.1 × 10^6 cells per mL. The cells were allowed to grow overnight, followed by substance treatment with 11.1 µL of tenfold concentrated test compound dilutions and further incubated for 24 h. Then plates were centrifuged, the medium was discarded and 50 µL per well of NBT solution (0.1% in PBS) was added. The plates were further incubated for 4 h, centrifuged again and the medium was discarded. After that, 50 µL of 2M KOH solution and 65 µL DMSO had been added per well, incubation was continued for 30 min. The absorbances at 630 nm und 405 nm were measured, using a plate reader (Tecan). The background absorbance (405 nm) was subtracted from the formazan signal (630 nm). The resulting absorbance is directly proportional to the reactive oxygen species level. The control value was normalized to 100% ROS level, and accordingly, the viability of cells treated with test compounds was calculated. Means and SD were calculated from at least four independent experiments.

Data set [7] deals with circular plasmid pBR322 DNA. The data set is described as follows: Electrophoretic mobility shift assay (EMSA). Format: binding. The procedure: To distinguish whether the DNA interaction is of an electrostatic or covalent nature, a second DNA interaction assay was conducted. 1.5 µg of circular plasmid pBR322 DNA were incubated in TE buffer (10 mM Tris–Cl, 1 mM EDTA, pH 8.0) with different concentrations of test compounds (final concentrations; 5 µM, 10 µM, 25 µM and 50 µM), whereas a corresponding volume of DMSO was added to the control (0 µM) to a final volume of 20 µL of each sample. Samples ware incubated for 16 h at 37 °C and subjected to 1% agarose gel electrophoresis in 0.5 × TBE buffer (45 mM Tris–Cl, 45 mM boric acid, 1.25 mM EDTA, pH 8.0) for 4 h at 66 V. Afterward, the agarose gel was stained for 20 min with EtdBr (10 µg/mL in 0.5 TBE buffer) solution and the result documented using UV excitation.
In general terms: Mobility shift assays separate free from complexed probe on a gel.

Data set [8] can be described thus: Stability in cell culture medium by UV/Vis spectroscopy. Format: physicochemical. The following applies: 0–30 min and 3 days. The text has this:
In a further corroboration of the complex stability, the similarity of the chalcogens sulfur and selenium was exploited. The selenolato complex 10 was synthesized and examined for its stability under identical conditions. Since ^77Se is a 1/2 spin nucleus with roughly 8% natural abundance, its compounds can be investigated directly. Depending on whether a break in the Se–Au or the Au–PR3 bond would occur, the shift would change by several hundred ppm and serve as unequivocal evidence. […] In addition, we investigated the stability of complexes 1 and 5 as representatives of the series of purines and purine nucleosides, respectively, in cell culture medium by UV/Vis spectroscopy.

The subject of data set [9] is linear salmon sperm DNA. The data set is described as follows: Ethidium bromide saturation assay. It is filed as binding. The procedure: The interaction of the complexes with linear DNA was assessed using the EtdBr assay. Ethidium bromide intercalates into DNA enhancing its fluorescence, while intercalation is hindered by alterations of the DNA structure e.g., by small molecules interfering with DNA [17]. In wells of a 96-well black flat bottom microtiter plates a solution of 1 µg linear salmon sperm DNA (ThermoFisher) in TE buffer (10 mM Tris–Cl, 1 mM EDTA, pH 8.0) was treated with concentration series (final concentrations; 25 µM, 50 µM, 75 µM and 100 µM) of the compounds, a corresponding amount of DMSO was used as a control (0 µM). After an incubation period of 2 h at 37 °C, 100 µL per well of ethidium bromide solution (10 µg/mL in TE buffer) was added and the plate was incubated for 5 min in the dark. Background samples were prepared analogously but without DNA addition. EtdBr–DNA adduct fluorescence was monitored at an excitation wavelength of 535 nm and an emission wavelength of 595 nm. After background subtraction, changes in fluorescence intensity were calculated in relation to control (set to 100%). Means and SD were calculated from at least three independent experiments.

The test system of data set [10] is 518A2 melanoma cells. As to the kind of experiment: Comet assay. To be noted: 518A2 cells, 3.3 µM and 33 µM. Format: cell-based, human. The procedure:
518A2 melanoma cells were seeded at a concentration of 0.03 × 10^6 cells/mL and a volume of 2 mL seeded in 6-well plates and incubated overnight (37 °C, 95% humidity, 5% CO2). In addition, slides were coated with 1.5% agarose and allowed to harden before being stored in a moist place until the next day. On the second day, a 100-fold substance pre-dilution was added to the cells followed by a further incubation of 3–5 h. The selected concentration range was based on Mendonça et al.. Subsequently, the cells were harvested with trypsin and the cell number was adjusted to 0.02 × 10^6 cells/mL. 0.5% agarose solution was prepared and tempered to a maximum of 50 °C. After mixing 0.4 mL of cell suspension with 1.2 mL of tempered agarose, 200 µL was pipetted onto each of the previously coated slides. After these had hardened, a one-hour incubation followed at 4 °C in lysis buffer. The samples were then electrophoresed at 11 V for 20 min and then incubated for 15 min in neutralization buffer. Finally, the DNA was stained with 30 µL each of 1% ethidium bromide for 30 min, before the slides were washed with PBS for subsequent documentation under a fluorescent microscope with UV excitation (Zeiss Axiovert 135, Ex/Em 300 nm/605 nm).

Broadly, the IC50 is the concentration that inhibits the measured activity by half. As to `CC(=O)OC[C@H]1O[C@@H]([S-])[C@H](OC(C)=O)[C@@H](OC(C)=O)[C@@H]1OC(C)=O.CCP(CC)CC.[Au+]` [Auranofin, auranofin], the IC50 was 2.6 ± 0.4 µM in [1]; 11.9 ± 0.4 µM in data set [2]; 1.8 ± 0.03 µM in [3]; 5 ± 0.2 µM in [4]; 14 ± 1 µM in [5]. In addition, in data set [6], the “Intracellular ROS level” value was “highest ROS levels”.
In the case of `OC[C@H]1O[C@@H](n2cnc3c([S][Au][PH](c4ccccc4)(c4ccccc4)c4ccccc4)ncnc32)[C@H](O)[C@@H]1O` [Complex 5, (1,7-Dihydro-6H-purine-9-β-D-ribofuranosyl-6-thiolato) (triphenylphosphane) gold(I)], the “DNA interaction (EMSA)” value in [7] is reported as “failed to reveal any positive effects”. Moreover, the “Stability in cell culture medium (UV/Vis)” value in data set [8] is reported as “stable under the test conditions”. In addition, the “DNA interaction (ethidium bromide saturation)” value in data set [9] is “failed to reveal any positive effects”. For the same compound, in [10], the “DNA damage (comet assay)” value is “led to DNA damage”.

These data come from paper PMC9653339, “Revisiting the anticancer properties of phosphane(9-ribosylpurine-6-thiolato)gold(I) complexes and their 9H-purine precursors” (Journal of Biological Inorganic Chemistry, 2022).
